Laboratory results: ChEMBL document CHEMBL1152041, “Design, Synthesis and Pharmacology of Cannabimimetic Indoles” (Bioorg Med Chem Lett, 1994)

Tests used:
Cannabinoid receptor = Cannabinoid receptor (Homo sapiens, UniProt P34972+P21554); experiment: Binding affinity was determined in vitro against cannabinoid receptor by ability to displace [3H]CP-55940; assay type: protein assay
Mus musculus = experiment: Tested in vivo for cannabimimetic activity in mouse; assay type: functional

Row | SMILES | Ki (Cannabinoid receptor) [µM] | ED50 (Mus musculus) [µmol/kg]
1 | CCCCC[C@H](C)n1c(C)c(C(=O)c2cccc3ccccc23)c2ccccc21 | 0.072 | 
2 | CC(=O)c1c(C)n(CCN2CCOCC2)c2ccccc12 | > 10 | > 350
3 | CC(C)=CC(=O)c1c(C)n(CCN2CCOCC2)c2ccccc12 | > 10 | > 103
4 | CCCCn1c(C)c(C(=O)c2cccc3ccccc23)c2ccccc21 | 0.022 | 
5 | Cc1c(C(=O)c2cccc3ccccc23)c2ccccc2n1CCc1ccccc1 | 1.25 | > 257
6 | Cc1c(C(=O)c2cccc3ccccc23)c2ccccc2n1CCC1CCCCC1 | 0.046 | 65.8
7 | CCCCCC(C)n1c(C)c(C(=O)c2cccc3ccccc23)c2ccccc21 (racemic) | 0.033 | 35.6
8 | CCCCCCn1c(C)c(C(=O)c2cccc3ccccc23)c2ccccc21 | 0.048 | 14
9 | Cc1c(C(=O)c2cccc3ccccc23)c2cccc3c2n1[C@H](CN1CCOCC1)CO3 [WIN-552122] |  | 6.53
10 | CCCCCCCn1c(C)c(C(=O)c2cccc3ccccc23)c2ccccc21 | > 10 | > 189
11 | CCCCCc1cc(O)c2c(c1)OC(C)(C)[C@@H]1CCC(C)=C[C@@H]21 [DRONABINOL] |  | 4.7
12 | CCCCCCC(C)(C)c1ccc([C@@H]2C[C@H](O)CC[C@H]2CCCO)c(O)c1 [CP-55940] |  | 0.55
13 | CCCCC[C@@H](C)n1c(C)c(C(=O)c2cccc3ccccc23)c2ccccc21 | 0.081 | 21.5
14 | CCCCCn1c(C)c(C(=O)c2cccc3ccccc23)c2ccccc21 | 0.0095 | 2.62
